According to DBAASP:
In brackets after ≈: the same amount, converted by molar mass.

Key:
Experiment in all cases: ≥ marks a high value that may be exact or a test limit, other limits are often not marked, values filed in µg/mL are converted to µM
[1] = tested on: Enterobacter cloacae ATCC 23355
[2] = tested on: Staphylococcus aureus ATCC 6538
[3] = tested on: Staphylococcus epidermidis
[4] = tested on: Escherichia coli CCT 1371
[5] = tested on: Escherichia coli ATCC 25922
[6] = tested on: Staphylococcus saprophyticus
[7] = tested on: Staphylococcus aureus ATCC 25923
[8] = tested on: Bacillus subtilis CCT 2471
Staphylococcus aureus = tested on: Staphylococcus aureus
Streptococcus sanguinis = tested on: Streptococcus sanguinis
Candida krusei DSM 70079 = tested on: Candida krusei DSM 70079
[9] = tested on: Candida glabrata ATCC 90030
[10] = tested on: Aspergillus niger ATCC 9029
[11] = tested on: Aspergillus fumigatus Af293
[12] = tested on: Candida albicans ATCC 10231
[13] = tested on: Aspergillus flavus PFCC 100
[14] = tested on: Bacillus megaterium CIP 51.17
[15] = tested on: Escherichia coli CIP 54.8T
[16] = tested on: Escherichia coli ATCC 11775
[17] = tested on: Micrococcus luteus ATCC 49732
[18] = tested on: Staphylococcus aureus ATCC 12600
[19] = tested on: Candida albicans ATCC 14053
[20] = tested on: Staphylococcus aureus DSM 1104
[21] = tested on: Escherichia coli DH5alpha
[22] = tested on: Micrococcus luteus DSM 1790
[23] = tested on: Bacillus subtilis ATCC 6633
[24] = tested on: Escherichia coli DSM 1103
[25] = tested on: Kocuria rhizophila DSM 348
[26] = tested on: Aspergillus fumigatus ATCC 1022
[27] = tested on: Enterococcus faecalis ATCC 29212
[28] = tested on: Trichophyton mentagrophytes ATCC 32510
[29] = tested on: Microsporum canis PTCC 5069
[30] = tested on: Candida krusei ATCC 28870
[31] = tested on: Aspergillus niger ATCC 9142
[32] = tested on: Bacillus subtilis ATCC 6051
[33] = tested on: Saccharomyces cerevisiae PTCC 5052
[34] = tested on: Cryptococcus neoformans ATCC 2517
[35] = tested on: Pseudomonas aeruginosa ATCC 27853
[36] = tested on: Aspergillus flavus ATCC 24109
Bacillus subtilis = tested on: Bacillus subtilis
Escherichia coli O111:B4 = tested on: Escherichia coli O111:B4
[37] = tested on: Staphylococcus aureus SAP 0017
Enterococcus faecalis = tested on: Enterococcus faecalis
[38] = tested on: Salmonella typhimurium C610
[39] = tested on: Staphylococcus aureus K147
[40] = tested on: Pseudomonas aeruginosa H103

## CC[C@H](C)[C@H](NC(=O)CNC(=O)[C@H](CCSC)NC(=O)[C@H](CC(C)C)NC(=O)[C@H](CCCCN)NC(=O)[C@@H](N)CC(C)C)C(=O)N[C@H](C(=O)N[C@@H](CCCCN)C(=O)N[C@@H](CCCCN)C(=O)N[C@H](C(=O)N[C@@H](CC(C)C)C(=O)NCC(=O)N[C@@H](C)C(=O)N[C@@H](CC(C)C)C(N)=O)C(C)C)C(C)C [LKLMGIVKKVLGAL]
[1]
  MIC: 17 µM (≈ 25.2 µg/mL)
[2]
  MIC: 34 µM (≈ 50.4 µg/mL)
[3]
  MIC: ≥ 34 µM
[4]
  MIC: 17 µM (≈ 25.2 µg/mL)
[5]
  MIC: 7 µM (≈ 10.4 µg/mL)
[6]
  MIC: 3 µM (≈ 4.45 µg/mL)
[7]
  MIC: 7 µM (≈ 10.4 µg/mL)
[8]
  MIC: ≥ 68 µM

## NC(=O)[C@H](Cc1ccccc1)NC(=O)[C@H](Cc1ccccc1)NC(=O)[C@H](Cc1ccccc1)NC(=O)[C@H](Cc1ccccc1)NC(=O)[C@H](Cc1ccccc1)NC(=O)[C@H](Cc1ccccc1)NC(=O)[C@H](Cc1ccccc1)NC(=O)[C@@H](N)Cc1ccccc1 [FFFFFFFF]
Staphylococcus aureus
  MIC: 5.8 µM (≈ 6.92 µg/mL)
Streptococcus sanguinis
  MIC: 7.1 µM (≈ 8.48 µg/mL)

## CC[C@H](C)[C@H](NC(=O)[C@@H](NC(=O)[C@H](CCCCN)NC(=O)[C@H](CC(=O)O)NC(=O)[C@H](C)NC(=O)[C@H](CCC(N)=O)NC(=O)[C@H](CCCN=C(N)N)NC(=O)[C@@H](NC(=O)[C@H](CO)NC(=O)CNC(=O)[C@H](CCCN=C(N)N)NC(=O)[C@H](CCC(=O)O)NC(=O)[C@H](Cc1c[nH]c2ccccc12)NC(=O)[C@@H](NC(=O)[C@H](CS)NC(=O)[C@H](CC(C)C)NC(=O)[C@H](CCC(=O)O)NC(=O)[C@H](CCC(N)=O)NC(=O)[C@H](CCCCN)NC(=O)[C@H](CO)NC(=O)[C@@H](NC(=O)[C@H](CCCN=C(N)N)NC(=O)CN)[C@@H](C)O)[C@@H](C)O)C(C)C)[C@@H](C)O)C(=O)N[C@@H](C)C(=O)NCC(=O)O [GRTSKQELCTWERGSVRQADKTIAG]
Candida krusei DSM 70079
  MIC: 20.7 µM (≈ 57.5 µg/mL)
[9]
  MIC: 19.8 µM (≈ 55 µg/mL)
[10]
  MIC: 22.5 µM (≈ 62.5 µg/mL)
[11]
  MIC: 20.7 µM (≈ 57.5 µg/mL)
[12]
  MIC: 21.6 µM (≈ 60 µg/mL)
[13]
  MIC: 23.4 µM (≈ 65 µg/mL)

## CC[C@H](C)[C@H](NC(=O)[C@H](CCCN=C(N)N)NC(=O)[C@H](CC(N)=O)NC(=O)[C@H](CC(C)C)NC(=O)[C@H](Cc1ccccc1)NC(=O)[C@H](CCCN=C(N)N)NC(=O)[C@H](Cc1ccccc1)NC(=O)[C@H](CCCN=C(N)N)NC(=O)[C@@H](NC(=O)[C@H](CC(C)C)NC(=O)[C@@H](NC(=O)[C@@H](N)C(C)C)[C@@H](C)CC)[C@@H](C)O)C(=O)N[C@H](C(=O)N[C@@H](CCC(=O)O)C(=O)N1CCC[C@H]1C(=O)N[C@@H](CC(C)C)C(=O)N[C@@H](CC(C)C)C(=O)N[C@@H](CCCCN)C(=O)N[C@@H](CCCCN)C(=O)N[C@@H](C)C(=O)O)C(C)C [VILTRFRFLNRIVEPLLKKA]
[14]
  MIC: ≥ 100 µM
[15]
  MIC: ≥ 35.4 µM

## CC(C)C[C@H](NC(=O)[C@H](Cc1cnc[nH]1)NC(=O)[C@@H](N)C(C)C)C(=O)N1CCC[C@H]1C(=O)N1CCC[C@H]1C(=O)O [VHLPP]
[16]
  MIC: ≥ 479 µM
[17]
  MIC: ≥ 479 µM
[18]
  MIC: ≥ 479 µM
[19]
  MIC: ≥ 479 µM

## CC(C)C[C@H](NC(=O)[C@H](C)NC(=O)[C@H](CCCCN)NC(=O)[C@H](CC(C)C)NC(=O)[C@H](C)NC(=O)[C@H](CC(C)C)NC(=O)[C@H](CCCCN)NC(=O)[C@H](CC(C)C)NC(=O)[C@H](C)NC(=O)[C@H](CC(C)C)NC(=O)[C@@H](N)CCCCN)C(=O)N[C@@H](CCCCN)C(=O)N[C@@H](C)C(=O)N[C@@H](C)C(=O)N[C@@H](CC(C)C)C(=O)N[C@@H](CCCCN)C(=O)N[C@@H](CC(C)C)C(=O)N[C@@H](C)C(=O)O [KLALKLALKALKAALKLA]
[20]
  MIC: ≥ 68.2 µM
[21]
  MIC: ≥ 68.2 µM
[22]
  MIC: ≥ 68.2 µM
[23]
  MIC: ≥ 68.2 µM
[24]
  MIC: ≥ 68.2 µM
[25]
  MIC: ≥ 68.2 µM

## CC[C@H](C)[C@H](NC(=O)[C@H](CCCCN)NC(=O)[C@H](Cc1ccccc1)NC(=O)[C@@H](N)Cc1c[nH]c2ccccc12)C(=O)N[C@H](C(=O)N[C@@H](CCCCN)C(=O)N[C@@H](CCCCN)C(=O)O)[C@@H](C)CC [WFKIIKK]
[26]
  MIC: 7.59 µM (≈ 7.3 µg/mL)
[27]
  MIC: > 1040 µM
[9]
  MIC: ≥ 130 µM
[28]
  MIC: ≥ 65 µM
[5]
  MIC: > 1040 µM
[29]
  MIC: ≥ 130 µM
[12]
  MIC: 16.6 µM (≈ 16 µg/mL)
[30]
  MIC: ≥ 33.3 µM
[31]
  MIC: ≥ 130 µM
[7]
  MIC: > 1040 µM
[32]
  MIC: ≥ 1040 µM
[33]
  MIC: 16.6 µM (≈ 16 µg/mL)
[34]
  MIC: ≥ 1040 µM
[35]
  MIC: > 1040 µM
[36]
  MIC: ≥ 1040 µM

## CC[C@H](C)[C@H](NC(=O)[C@H](C)NC(=O)[C@@H]1CCCN1C(=O)CNC(=O)[C@H](C)NC(=O)[C@@H](NC(=O)[C@H](CCCCN)NC(=O)[C@H](CC(C)C)NC(=O)CNC(=O)[C@H](CO)NC(=O)[C@H](CC(C)C)NC(=O)[C@@H](NC(=O)[C@H](CCCN=C(N)N)NC(=O)[C@H](CCCN=C(N)N)NC(=O)[C@H](Cc1c[nH]c2ccccc12)NC(=O)[C@H](Cc1c[nH]c2ccccc12)NC(=O)[C@H](CCCCN)NC(=O)[C@@H](N)CCCCN)C(C)C)[C@@H](C)O)C(=O)N[C@@H](CCC(N)=O)C(=O)N[C@@H](CO)C(=O)N[C@H](C(=O)N[C@@H](CC(C)C)C(=O)N[C@@H](CC(N)=O)C(=O)N[C@@H](CCCCN)C(=O)O)C(C)C [KKWWRRVLSGLKTAGPAIQSVLNK]
Bacillus subtilis
  MIC: ≥ 46.8 µM
[3]
  MIC: ≥ 46.8 µM
Escherichia coli O111:B4
  MIC: 5.85 µM (≈ 16 µg/mL)
[37]
  MIC: ≥ 46.8 µM
Enterococcus faecalis
  MIC: ≥ 46.8 µM
[38]
  MIC: 5.85 µM (≈ 16 µg/mL)
[39]
  MIC: ≥ 46.8 µM
[40]
  MIC: 23.4 µM (≈ 64 µg/mL)
